ChEMBL document CHEMBL4507273 (2021)

Experiments:
[1] = tested on: Tyrosine-protein kinase ABL1 (Homo sapiens), P00519 [E255K]; details: Compound concentration 1000.0 nM
[2] = molecular target: Atypical kinase COQ8B, mitochondrial (Homo sapiens) (UniProt Q96D53); details: Compound concentration 1000.0 nM
[3] = molecular target: Bone morphogenetic protein receptor type-1A (Homo sapiens) (UniProt P36894); details: Compound concentration 1000.0 nM
[4] = molecular target: Serine/threonine-protein kinase BRSK2 (Homo sapiens) (UniProt Q8IWQ3); details: Compound concentration 1000.0 nM
[5] = molecular target: Calcium/calmodulin-dependent protein kinase type 1D (Homo sapiens) (UniProt Q8IU85); details: Compound concentration 1000.0 nM
[6] = molecular target: Calcium/calmodulin-dependent protein kinase type 1G (Homo sapiens) (UniProt Q96NX5); details: Compound concentration 1000.0 nM
[7] = molecular target: Serine/threonine-protein kinase Chk1 (Homo sapiens) (UniProt O14757); details: Compound concentration 1000.0 nM
[8] = molecular target: Citron Rho-interacting kinase (Homo sapiens) (UniProt O14578); details: Compound concentration 1000.0 nM
[9] = molecular target: Death-associated protein kinase 2 (Homo sapiens) (UniProt Q9UIK4); details: Compound concentration 1000.0 nM
[10] = molecular target: Serine/threonine-protein kinase 17A (Homo sapiens) (UniProt Q9UEE5); details: Compound concentration 1000.0 nM
[11] = tested on: Epidermal growth factor receptor (Homo sapiens), P00533 [UNDEFINED MUTATION]; details: Compound concentration 1000.0 nM
[12] = tested on: Epidermal growth factor receptor (Homo sapiens), P00533 [L861Q]; details: Compound concentration 1000.0 nM
[13] = molecular target: Ephrin type-A receptor 1 (Homo sapiens) (UniProt P21709); details: Compound concentration 1000.0 nM
[14] = molecular target: Ephrin type-B receptor 3 (Homo sapiens) (UniProt P54753); details: Compound concentration 1000.0 nM
[15] = molecular target: Tyrosine-protein kinase Fes/Fps (Homo sapiens) (UniProt P07332); details: Compound concentration 1000.0 nM
[16] = molecular target: Tyrosine-protein kinase Fgr (Homo sapiens) (UniProt P09769); details: Compound concentration 1000.0 nM
[17] = molecular target: Vascular endothelial growth factor receptor 1 (Homo sapiens) (UniProt P17948); details: Compound concentration 1000.0 nM
[18] = tested on: Receptor-type tyrosine-protein kinase FLT3 (Homo sapiens), P36888 [D835V]; details: Compound concentration 1000.0 nM
[19] = tested on: Receptor-type tyrosine-protein kinase FLT3 (Homo sapiens), P36888 [UNDEFINED MUTATION]; details: Compound concentration 1000.0 nM
[20] = molecular target: Receptor-type tyrosine-protein kinase FLT3 (Homo sapiens) (UniProt P36888); details: Compound concentration 1000.0 nM
[21] = molecular target: G protein-coupled receptor kinase 4 (Homo sapiens) (UniProt P32298); details: Compound concentration 1000.0 nM
[22] = molecular target: Mast/stem cell growth factor receptor Kit (Homo sapiens) (UniProt P10721); details: Compound concentration 1000.0 nM
[23] = tested on: Mast/stem cell growth factor receptor Kit (Homo sapiens), P10721 [D816H]; details: Compound concentration 1000.0 nM
[24] = molecular target: Mitogen-activated protein kinase kinase kinase 3 (Homo sapiens) (UniProt Q99759); details: Compound concentration 1000.0 nM
[25] = molecular target: MAP kinase-activated protein kinase 2 (Homo sapiens) (UniProt P49137); details: Compound concentration 1000.0 nM
[26] = molecular target: Myosin light chain kinase, smooth muscle (Homo sapiens) (UniProt Q15746); details: Compound concentration 1000.0 nM
[27] = molecular target: Myosin light chain kinase 2, skeletal/cardiac muscle (Homo sapiens) (UniProt Q9H1R3); details: Compound concentration 1000.0 nM
[28] = molecular target: Cyclin-dependent kinase 16 (Homo sapiens) (UniProt Q00536); details: Compound concentration 1000.0 nM
[29] = molecular target: Cyclin-dependent kinase 15 (Homo sapiens) (UniProt Q96Q40); details: Compound concentration 1000.0 nM
[30] = tested on: Phosphatidylinositol 4,5-bisphosphate 3-kinase catalytic subunit alpha isoform (Homo sapiens), P42336 [E545A]; details: Compound concentration 1000.0 nM
[31] = molecular target: cGMP-dependent protein kinase 1 (Homo sapiens) (UniProt Q13976); details: Compound concentration 1000.0 nM
[32] = molecular target: Rho-associated protein kinase 1 (Homo sapiens) (UniProt Q13464); details: Compound concentration 1000.0 nM
[33] = molecular target: Ribosomal protein S6 kinase alpha-1 (Homo sapiens) (UniProt Q15418); details: Compound concentration 1000.0 nM
[34] = molecular target: STE20-like serine/threonine-protein kinase (Homo sapiens) (UniProt Q9H2G2); details: Compound concentration 1000.0 nM
[35] = molecular target: Tyrosine-protein kinase SYK (Homo sapiens) (UniProt P43405); details: Compound concentration 1000.0 nM
[36] = molecular target: TRAF2 and NCK-interacting protein kinase (Homo sapiens) (UniProt Q9UKE5); details: Compound concentration 1000.0 nM
[37] = molecular target: High affinity nerve growth factor receptor (Homo sapiens) (UniProt P04629); details: Compound concentration 1000.0 nM
[38] = molecular target: Transient receptor potential cation channel subfamily M member 6 (Homo sapiens) (UniProt Q9BX84); details: Compound concentration 1000.0 nM
[39] = molecular target: Phosphatidylinositol 3-kinase catalytic subunit type 3 (Homo sapiens) (UniProt Q8NEB9); details: Compound concentration 1000.0 nM
[40] = molecular target: 5-hydroxytryptamine receptor 2B (Homo sapiens, UniProt P41595); details: Compound concentration 10.0 uM
[41] = molecular target: 5-hydroxytryptamine receptor 5A (Homo sapiens, UniProt P47898); details: Compound concentration 10.0 uM
[42] = molecular target: Histamine H1 receptor (Homo sapiens, UniProt P35367); details: Compound concentration 10.0 uM
[43] = molecular target: Muscarinic acetylcholine receptor M2 (Homo sapiens) (UniProt P08172); details: Compound concentration 10.0 uM

Sequence of Serine/threonine-protein kinase BRSK2 (Homo sapiens) (Q8IWQ3 whole entry): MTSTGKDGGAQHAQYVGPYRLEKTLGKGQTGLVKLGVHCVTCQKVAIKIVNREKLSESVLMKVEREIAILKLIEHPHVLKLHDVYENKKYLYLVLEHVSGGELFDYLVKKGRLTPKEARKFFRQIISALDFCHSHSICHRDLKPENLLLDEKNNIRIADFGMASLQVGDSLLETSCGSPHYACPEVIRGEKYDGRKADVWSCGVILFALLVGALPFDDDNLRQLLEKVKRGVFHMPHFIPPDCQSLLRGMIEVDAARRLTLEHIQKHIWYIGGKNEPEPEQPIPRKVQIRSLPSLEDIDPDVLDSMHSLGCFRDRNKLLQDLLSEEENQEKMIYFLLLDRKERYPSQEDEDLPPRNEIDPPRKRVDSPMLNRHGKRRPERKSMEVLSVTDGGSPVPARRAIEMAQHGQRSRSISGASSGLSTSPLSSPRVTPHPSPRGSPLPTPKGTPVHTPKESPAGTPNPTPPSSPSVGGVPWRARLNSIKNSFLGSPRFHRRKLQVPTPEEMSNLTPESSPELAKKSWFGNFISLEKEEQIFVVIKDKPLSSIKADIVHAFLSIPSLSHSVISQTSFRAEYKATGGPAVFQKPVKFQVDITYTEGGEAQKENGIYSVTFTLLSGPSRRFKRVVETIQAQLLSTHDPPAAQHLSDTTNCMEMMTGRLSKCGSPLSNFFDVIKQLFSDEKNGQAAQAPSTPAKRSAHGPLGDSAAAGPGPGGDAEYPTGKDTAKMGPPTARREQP
Sequence of Cyclin-dependent kinase 16 (Homo sapiens) (Q00536 whole entry): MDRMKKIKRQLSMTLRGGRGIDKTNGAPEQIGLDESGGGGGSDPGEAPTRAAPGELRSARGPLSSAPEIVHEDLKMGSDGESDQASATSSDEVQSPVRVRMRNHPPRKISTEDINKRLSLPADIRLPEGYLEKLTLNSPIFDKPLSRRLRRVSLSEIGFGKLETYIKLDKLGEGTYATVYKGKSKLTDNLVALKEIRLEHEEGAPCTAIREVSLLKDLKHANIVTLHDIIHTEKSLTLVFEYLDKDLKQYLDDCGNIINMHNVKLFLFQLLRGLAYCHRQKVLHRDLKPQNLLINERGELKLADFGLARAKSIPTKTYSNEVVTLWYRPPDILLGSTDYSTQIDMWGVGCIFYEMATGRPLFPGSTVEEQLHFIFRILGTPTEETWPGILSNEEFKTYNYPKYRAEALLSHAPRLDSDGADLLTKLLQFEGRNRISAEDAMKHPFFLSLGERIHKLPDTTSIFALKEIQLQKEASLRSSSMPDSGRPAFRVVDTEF
Sequence of Death-associated protein kinase 2 (Homo sapiens) (Q9UIK4 whole entry, looked up): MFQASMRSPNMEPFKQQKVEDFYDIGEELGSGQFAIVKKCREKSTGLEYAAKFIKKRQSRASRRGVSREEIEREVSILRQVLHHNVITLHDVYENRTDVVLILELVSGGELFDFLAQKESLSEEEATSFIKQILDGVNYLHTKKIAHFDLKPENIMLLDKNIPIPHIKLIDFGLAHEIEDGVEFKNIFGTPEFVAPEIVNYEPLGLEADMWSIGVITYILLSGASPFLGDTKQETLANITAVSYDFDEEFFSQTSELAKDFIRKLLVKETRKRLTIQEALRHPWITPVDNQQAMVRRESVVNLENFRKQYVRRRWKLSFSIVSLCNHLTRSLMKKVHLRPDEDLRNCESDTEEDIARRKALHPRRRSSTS
Sequence of Cyclin-dependent kinase 15 (Homo sapiens) (Q96Q40 whole entry, canonical isoform): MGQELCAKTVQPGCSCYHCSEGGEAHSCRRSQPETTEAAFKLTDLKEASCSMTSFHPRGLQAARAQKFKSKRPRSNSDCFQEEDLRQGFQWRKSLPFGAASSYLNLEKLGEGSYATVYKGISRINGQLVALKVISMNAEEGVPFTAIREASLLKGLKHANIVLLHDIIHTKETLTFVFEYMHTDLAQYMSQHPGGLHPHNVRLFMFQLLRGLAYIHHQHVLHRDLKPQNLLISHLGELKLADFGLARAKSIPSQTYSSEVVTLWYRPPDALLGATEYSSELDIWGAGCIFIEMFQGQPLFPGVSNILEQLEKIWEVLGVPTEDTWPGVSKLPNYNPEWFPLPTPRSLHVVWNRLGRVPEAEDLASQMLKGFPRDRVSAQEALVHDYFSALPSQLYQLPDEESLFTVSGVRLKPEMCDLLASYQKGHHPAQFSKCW
Sequence of Tyrosine-protein kinase Fgr (Homo sapiens) (P09769 2-529 limits assumed): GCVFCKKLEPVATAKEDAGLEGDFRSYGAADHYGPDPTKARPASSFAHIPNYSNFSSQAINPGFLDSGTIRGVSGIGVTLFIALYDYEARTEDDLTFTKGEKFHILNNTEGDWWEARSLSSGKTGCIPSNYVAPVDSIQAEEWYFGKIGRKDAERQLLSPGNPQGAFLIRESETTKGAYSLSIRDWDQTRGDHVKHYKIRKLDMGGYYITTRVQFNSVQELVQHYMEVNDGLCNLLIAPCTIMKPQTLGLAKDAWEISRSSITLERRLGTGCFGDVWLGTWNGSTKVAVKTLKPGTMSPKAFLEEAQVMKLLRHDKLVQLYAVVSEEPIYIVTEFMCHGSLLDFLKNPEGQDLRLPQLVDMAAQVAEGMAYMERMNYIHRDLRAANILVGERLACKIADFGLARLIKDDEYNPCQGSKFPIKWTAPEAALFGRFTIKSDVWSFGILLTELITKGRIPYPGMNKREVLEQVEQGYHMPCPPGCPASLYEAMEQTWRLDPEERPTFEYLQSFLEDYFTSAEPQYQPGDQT
Sequence of Ephrin type-A receptor 1 (Homo sapiens) (P21709 whole entry): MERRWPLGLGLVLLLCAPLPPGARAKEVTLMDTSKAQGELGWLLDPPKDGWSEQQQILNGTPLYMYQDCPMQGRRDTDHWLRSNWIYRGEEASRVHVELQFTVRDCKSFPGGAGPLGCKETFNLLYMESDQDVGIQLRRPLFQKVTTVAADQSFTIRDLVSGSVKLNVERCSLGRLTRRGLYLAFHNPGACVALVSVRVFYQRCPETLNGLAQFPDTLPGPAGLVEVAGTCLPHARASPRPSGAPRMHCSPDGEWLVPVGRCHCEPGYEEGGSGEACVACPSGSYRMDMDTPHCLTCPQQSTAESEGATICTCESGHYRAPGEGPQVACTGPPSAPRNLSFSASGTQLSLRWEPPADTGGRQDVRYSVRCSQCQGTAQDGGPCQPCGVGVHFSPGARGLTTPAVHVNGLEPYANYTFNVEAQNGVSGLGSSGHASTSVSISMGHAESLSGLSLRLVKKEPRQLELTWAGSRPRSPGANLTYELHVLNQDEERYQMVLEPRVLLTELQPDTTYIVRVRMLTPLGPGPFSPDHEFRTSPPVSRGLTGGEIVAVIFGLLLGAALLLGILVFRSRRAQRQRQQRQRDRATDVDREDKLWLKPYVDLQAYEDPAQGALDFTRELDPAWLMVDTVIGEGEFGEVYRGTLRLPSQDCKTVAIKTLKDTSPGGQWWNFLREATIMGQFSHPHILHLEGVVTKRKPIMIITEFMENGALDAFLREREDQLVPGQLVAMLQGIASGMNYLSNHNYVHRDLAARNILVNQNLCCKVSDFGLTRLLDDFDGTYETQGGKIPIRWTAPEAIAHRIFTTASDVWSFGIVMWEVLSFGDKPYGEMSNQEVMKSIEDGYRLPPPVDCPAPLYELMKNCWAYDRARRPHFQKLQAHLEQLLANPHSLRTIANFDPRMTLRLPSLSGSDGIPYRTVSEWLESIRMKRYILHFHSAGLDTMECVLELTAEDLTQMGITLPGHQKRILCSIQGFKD
Sequence of Calcium/calmodulin-dependent protein kinase type 1G (Homo sapiens) (Q96NX5 whole entry): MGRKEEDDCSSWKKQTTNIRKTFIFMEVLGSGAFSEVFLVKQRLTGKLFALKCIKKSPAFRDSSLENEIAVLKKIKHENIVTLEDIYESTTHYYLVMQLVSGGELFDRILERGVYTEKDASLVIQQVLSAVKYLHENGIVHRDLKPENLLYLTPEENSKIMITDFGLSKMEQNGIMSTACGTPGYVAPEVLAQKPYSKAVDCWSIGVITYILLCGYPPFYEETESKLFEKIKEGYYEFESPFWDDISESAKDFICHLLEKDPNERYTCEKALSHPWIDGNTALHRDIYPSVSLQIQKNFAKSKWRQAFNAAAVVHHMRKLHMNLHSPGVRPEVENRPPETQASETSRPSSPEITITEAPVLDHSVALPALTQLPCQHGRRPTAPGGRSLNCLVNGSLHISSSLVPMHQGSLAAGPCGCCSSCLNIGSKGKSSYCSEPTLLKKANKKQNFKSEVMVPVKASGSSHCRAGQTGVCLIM
Sequence of Bone morphogenetic protein receptor type-1A (Homo sapiens) (P36894 whole entry): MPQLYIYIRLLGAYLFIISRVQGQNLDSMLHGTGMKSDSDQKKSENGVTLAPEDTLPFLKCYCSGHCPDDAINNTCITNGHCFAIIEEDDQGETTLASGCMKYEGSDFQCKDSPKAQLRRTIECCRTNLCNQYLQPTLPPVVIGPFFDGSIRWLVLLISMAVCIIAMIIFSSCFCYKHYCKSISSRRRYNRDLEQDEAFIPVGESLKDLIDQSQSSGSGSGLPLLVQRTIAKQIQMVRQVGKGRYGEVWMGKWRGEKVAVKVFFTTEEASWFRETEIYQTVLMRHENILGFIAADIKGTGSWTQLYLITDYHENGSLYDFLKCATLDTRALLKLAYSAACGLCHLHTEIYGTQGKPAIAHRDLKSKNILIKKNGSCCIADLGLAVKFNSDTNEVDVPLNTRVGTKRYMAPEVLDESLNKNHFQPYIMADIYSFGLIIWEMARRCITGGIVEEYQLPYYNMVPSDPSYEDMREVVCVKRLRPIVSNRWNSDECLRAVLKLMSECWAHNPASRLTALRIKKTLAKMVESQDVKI
Sequence of MAP kinase-activated protein kinase 2 (Homo sapiens) (P49137 whole entry, looked up): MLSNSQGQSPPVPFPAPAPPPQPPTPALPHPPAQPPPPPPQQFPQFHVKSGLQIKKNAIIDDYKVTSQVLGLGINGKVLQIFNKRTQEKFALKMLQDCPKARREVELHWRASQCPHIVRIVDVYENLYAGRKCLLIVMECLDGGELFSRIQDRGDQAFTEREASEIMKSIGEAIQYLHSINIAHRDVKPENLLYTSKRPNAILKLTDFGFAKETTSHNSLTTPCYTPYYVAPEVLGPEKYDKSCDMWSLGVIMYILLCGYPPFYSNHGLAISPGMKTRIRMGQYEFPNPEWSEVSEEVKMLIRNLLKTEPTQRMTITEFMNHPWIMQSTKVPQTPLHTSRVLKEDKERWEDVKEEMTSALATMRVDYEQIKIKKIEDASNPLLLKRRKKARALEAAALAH

In the case of `CNCc1ccccc1-c1csc([C@@H](C)Nc2nc(C)nc3cc(OC)c(OC)cc23)c1` [BAY-293], the residual activity [1] is reported as 75%, the residual activity [2] is reported as 65% and the residual activity [3] is reported as 91%. The residual activity [4] was 100%, the residual activity [5] was 100% and the residual activity [6] was 93%. It also gave a residual activity [7] of 92%, a residual activity [8] of 92% and a residual activity [9] of 100%. For the same molecule, the residual activity [10] was 100%, the residual activity [11] was 61% and the residual activity [12] was 97%. For the same molecule, the residual activity [13] was 79%, the residual activity [14] was 100% and the residual activity [15] was 100%. For the same molecule, the residual activity [16] was 100%, the residual activity [17] was 87% and the residual activity [18] was 70%. The residual activity [19] was 89%, the residual activity [20] was 88% and the residual activity [21] was 80%. For the same molecule, the residual activity [22] was 100%, the residual activity [23] was 85% and the residual activity [24] was 83%. It also gave a residual activity [25] of 83%, a residual activity [26] of 84% and a residual activity [27] of 91%. It also gave a residual activity [28] of 87%, a residual activity [29] of 100% and a residual activity [30] of 91%. For the same molecule, the residual activity [31] was 100%, the residual activity [32] was 91% and the residual activity [33] was 100%. It also gave a residual activity [34] of 97%, a residual activity [35] of 100% and a residual activity [36] of 85%. For the same molecule, the residual activity [37] was 87%, the residual activity [38] was 91% and the residual activity [39] was 100%. For the same molecule, the inhibition [40] was 86.9%, the inhibition [41] was 68.5% and the inhibition [42] was 49.4%. It also gave an inhibition [43] of 74.2%.

`CNCc1ccccc1-c1csc([C@H](C)Nc2nc(C)nc3cc(OC)c(OC)cc23)c1` [BAY-294] showed a residual activity [1] of 81%, a residual activity [2] of 93% and a residual activity [3] of 100%. For the same molecule, the residual activity [4] was 100%, the residual activity [5] was 100% and the residual activity [6] was 96%. For the same molecule, the residual activity [7] was 100%, the residual activity [8] was 100% and the residual activity [9] was 100%. For the same molecule, the residual activity [10] was 100%, the residual activity [11] was 100% and the residual activity [12] was 97%. For the same molecule, the residual activity [13] was 100%, the residual activity [14] was 100% and the residual activity [15] was 100%. The residual activity [16] was 100%, the residual activity [17] was 91% and the residual activity [18] was 88%. For the same molecule, the residual activity [19] was 99%, the residual activity [20] was 93% and the residual activity [21] was 97%. For the same molecule, the residual activity [22] was 100%, the residual activity [23] was 95% and the residual activity [24] was 87%. For the same molecule, the residual activity [25] was 80%, the residual activity [26] was 94% and the residual activity [27] was 100%. The residual activity [28] was 83%, the residual activity [29] was 100% and the residual activity [30] was 97%. It also gave a residual activity [31] of 100%, a residual activity [32] of 93% and a residual activity [33] of 100%. For the same molecule, the residual activity [34] was 100%, the residual activity [35] was 100% and the residual activity [36] was 99%. For the same molecule, the residual activity [37] was 87%, the residual activity [38] was 100% and the residual activity [39] was 93%. The inhibition [40] was 97.3%, the inhibition [41] was 78.1% and the inhibition [42] was 56.7%. It also gave an inhibition [43] of 65.4%.
